Source: patent USRE46792E1, “Oxazole compound and pharmaceutical composition” (Otsuka Pharmaceutical Co., Ltd., priority 2005, dated 2018)

Molecular target: human PDE4D3 (PDE4D) (Homo sapiens (Human), UniProt Q08499)
Assay: Phosphodiesterase (PDE)4 inhibitory activity evaluation test ([3H]cAMP hydrolysis by PDE4D enzyme solution)
Assay type: biochemical
Conditions: recombinant human PDE4D3 expressed in COS-7 cells; [3H]cAMP substrate; 10 min at 30° C.; 2% DMSO
Text: Phosphodiesterase (PDE)4 Inhibitory Activity Evaluation Test
(1) Large Scale Plasmid Preparation
Plasmid containing genes (HPDE4D) coding for human PDE4D3 cDNA (stored in Otsuka America Pharmaceutical, Inc., Maryland Research Laboratories) was transformed in E. coli, cultured on a large scale, and purified using an EndoFree™ Plasmid Maxi Kit (Qiagen).
(2) Abundant Expression and Purification of PDE4D
COS-7 cells derived from African green monkey kidneys were passage cultured in D-MEM media containing 100 units/ml penicillin, 100 μg/ml streptomycin, and 10% FBS. The cells were transfected with the plasmid prepared in (1) above using Lipofectamine™ 2000 (hereinafter referred to as “LF2000”, Invitrogen), following the manufacturer's protocol. The COS-7 cells were inoculated in a 10 cm culture dish on the previous day so as to be 90% confluent on the day of transfection. Culture dishes each containing a plasmid solution (solution A) in which 24 μg of plasmid was diluted in 1.5 ml Opti-MEM I Reduced Serum Medium (Invitrogen) and an LF2000 solution (solution B) in which 60 μl of LF2000 was diluted in 1.5 ml Opti-MEM I Reduced Serum Medium were separately allowed to stand for 5 minutes at room temperature. Solutions A and B were then mixed and the mixture was allowed to stand for 20 minutes at room temperature. The mixture was added to the cultured cells, and incubated at 37° C. (5% CO2) overnight. On the following day, the medium was replaced, and the mixture was further incubated overnight to harvest the cells in the following manner. The cells were washed with PBS (Sigma) once, and 10 ml of a Trypsin-EDTA solution (Sigma) was added to each culture dish. After the solution was distributed to each of the culture dishes, the cells were detached, and the dishes were allowed to stand for about 5 minutes at 37° C. The detached cells from the dishes were suspended in media, collected into centrifuge tubes, and centrifuged at 1200 rpm for 5 minutes at 4° C., and supernatants were removed. The cells were further washed with PBS, and stored at −80° C. KHEM buffer (100 mM Hepes, 50 mM KCl, 10 mM EGTA, 1.92 mM MgCl2, pH 7.4) containing 1 mM DTT, 1 μg/ml antipain, 1 μg/ml aprotinin, 1 μg/ml leupeptin, 1 μg/ml pepstatin A, 157 μg/ml benzamidine, and 120 μg/ml Pefabloc SC was added to the stored cells, and the contents were moved to a glass homogenizer to be homogenized on ice. The cell suspension was centrifuged at 1000 rpm for 5 minutes at 4° C., and the supernatant was further centrifuged at 14000 rpm for one hour. After centrifugation, the supernatant was dispensed into new tubes as PDE4D enzyme solutions, and stored in a deep freezer.
(3) Determination on Dilution Ratio of PDE4D Enzyme Solutions
The PDE4D enzyme solutions prepared in (2) above were dissolved in 20 mM Tris-HCl solution (pH 7.4) to give 10-, 25-, 50-, 100-, 200-, 400-, and 800-fold dilutions of the enzyme solutions. PDE4D activities were measured according to (4) below. The percentage of catalyzed cAMP to total cAMP was calculated, and such a dilution, in which the percentage was between 10% and 30%, was adopted in the inhibitory study below.
(4) Measurement of PDE4D Inhibitory Activity
Necessary amounts of test compounds were weighed, and 100% dimethylsulfoxide (DMSO) was added thereto to adjust the concentration to 10 mM. The solutions were stored in a freezer as stock solutions of each test compound. After being thawed when required, the solutions were diluted 20-fold with 100% DMSO to give a 500 μM concentration. Further, 10-fold serial dilutions were made with 100% DMSO to prepare test compounds of different concentrations. 2 μl of solutions containing one of each of the test compound were separately added into 1.2 ml tubes in which 23 μl of 20 mM Tris-HCl (pH 7.4) had been placed beforehand. […]

human PDE4D3 (PDE4D), sequence (Q08499 other isoform, or with tags, fused parts or gaps): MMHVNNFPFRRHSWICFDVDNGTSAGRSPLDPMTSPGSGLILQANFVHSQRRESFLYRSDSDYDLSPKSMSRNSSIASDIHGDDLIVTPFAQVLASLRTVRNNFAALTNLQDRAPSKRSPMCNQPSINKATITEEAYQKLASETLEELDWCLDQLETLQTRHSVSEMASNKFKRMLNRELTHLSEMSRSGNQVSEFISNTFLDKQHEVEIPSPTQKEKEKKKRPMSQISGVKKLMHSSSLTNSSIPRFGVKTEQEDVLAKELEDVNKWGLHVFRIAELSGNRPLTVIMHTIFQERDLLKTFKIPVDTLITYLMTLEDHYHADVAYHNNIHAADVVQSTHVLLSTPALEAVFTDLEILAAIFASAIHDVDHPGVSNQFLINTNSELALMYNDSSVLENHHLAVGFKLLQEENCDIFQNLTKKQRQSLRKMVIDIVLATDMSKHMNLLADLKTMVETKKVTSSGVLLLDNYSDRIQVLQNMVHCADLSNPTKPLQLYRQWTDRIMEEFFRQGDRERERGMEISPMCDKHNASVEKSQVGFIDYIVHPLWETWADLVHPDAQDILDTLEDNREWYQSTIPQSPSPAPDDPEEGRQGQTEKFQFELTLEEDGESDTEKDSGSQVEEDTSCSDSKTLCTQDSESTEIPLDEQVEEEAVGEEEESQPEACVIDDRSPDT

SMILES | IC50 [nM]
COc1ccc(-c2nc(CCC(=O)c3ccccc3OCC(F)F)co2)cc1OC(C)C [Example 278, 1-[2-(2,2-difluoroethoxy)phenyl]-3-[2-(3-isopropoxy-4-methoxyphenyl)oxazol-4-yl]propan-1-one] | < 50
CCOc1ccccc1C(=O)CCc1coc(-c2ccc(OC)c(OCC(F)F)c2)n1 [Example 314, 3-{2-[3-(2,2-difluoroethoxy)-4-methoxyphenyl]oxazol-4-yl}-1-(2-ethoxyphenyl)propan-1-one] | < 50
CCCOc1cccnc1C(=O)NCc1coc(-c2ccc(OC)c(OCC3CC3)c2)n1 [Example 61] | < 50
CCOc1ccccc1C(=O)CCc1coc(-c2ccc(OC(F)F)c(OCC3CC3)c2)n1 [Example 336, 3-[2-(3-cyclopropylmethoxy-4-difluoromethoxyphenyl)oxazol-4-yl]-1-(2-ethoxyphenyl)propan-1-one] | < 50
COc1ccc(-c2nc(CCC(=O)c3ncccc3C)co2)cc1OCC(F)(F)F [Example 155, 3-{2-[4-methoxy-3-(2,2,2-trifluoroethoxy)phenyl]oxazol-4-yl}-1-(3-methylpyridin-2-yl)propan-1-one] | < 50
CCOc1cccnc1C(=O)CCc1coc(-c2ccc(OC)c(OCC3CC3)c2)n1 [Example 133, 3-[2-(3-cyclopropylmethoxy-4-methoxyphenyl)oxazol-4-yl]-1-(3-ethoxypyridin-2-yl)propan-1-one] | < 50
CCOc1ccccc1C(=O)CCc1coc(-c2ccc(OC)c(OCC3CCC3)c2)n1 [Example 116, 3-[2-(3-cyclobutylmethoxy-4-methoxyphenyl)oxazol-4-yl]-1-(2-ethoxyphenyl)propan-1-one] | < 50
CCC(CC)Oc1cc(-c2nc(CNC(=O)c3ncccc3C)co2)ccc1OC [Example 324, N-{2-[3-(1-ethylpropoxy)-4-methoxyphenyl]oxazol-4-ylmethyl}-3-methylpicolinamide] | < 50
C=CCCOc1cc(-c2nc(CCC(=O)c3ccccc3OCC)co2)ccc1OC [Example 108, 3-[2-(3-(3-butenyloxy)-4-methoxyphenyl)oxazol-4-yl]-1-(2-ethoxyphenyl)propan-1-one] | < 50
CCCOc1cc(-c2nc(CNC(=O)c3ncccc3C)co2)ccc1OC(F)F [Example 340, N-[2-(4-difluoromethoxy-3-propoxyphenyl)oxazol-4-ylmethyl]-3-methylpicolinamide] | < 50
COc1ccc(-c2nc(CNC(=O)c3ncccc3C)co2)cc1OC(C)C [Example 384, N-[2-(4-methoxy-3-isopropoxyphenyl)oxazol-4-ylmethyl]-3-methylpicolinamide] | < 50
COc1ccc(-c2nc(CCC(=O)c3ncccc3C)co2)cc1OC(C)C [Example 139, 3-[2-(3-isopropoxy-4-methoxyphenyl)oxazol-4-yl]-1-(3-methylpyridin-2-yl)propan-1-one] | < 50
CCOc1ccccc1C(=O)NCc1coc(-c2ccc(OC(F)F)c(OC(CC)CC)c2)n1 [Example 355, N-{2-[4-difluoromethoxy-3-(1-ethylpropoxy)phenyl]oxazol-4-ylmethyl}-2-ethoxybenzamide] | < 50
C=CCCOc1cc(-c2nc(CCC(=O)c3ccccc3OCC)co2)ccc1OC(F)F [Example 337, 3-[2-(3-but-3-enyloxy-4-difluoromethoxyphenyl)oxazol-4-yl]-1-(2-ethoxyphenyl)propan-1-one] | < 50
CCOc1cc(-c2nc(CCC(=O)c3ccc(F)cc3OC(C)C)co2)ccc1OC [Example 305, 3-[2-(3-ethoxy-4-methoxyphenyl)oxazol-4-yl]-1-(4-fluoro-2-isopropoxyphenyl)propan-1-one] | < 50
COc1ccc(-c2nc(CNC(=O)c3ccccc3OC)co2)cc1OC1CCCC1 [Example 35, N-[2-(3-cyclopentyloxy-4-methoxyphenyl)oxazol-4-ylmethyl]-2-methoxybenzamide] | < 50
COc1ccc(-c2nc(CCC(=O)c3ccccc3OCC(F)F)co2)cc1OCC(F)F [Example 284, 3-{2-[3-(2,2-difluoroethoxy)-4-methoxyphenyl]oxazol-4-yl}-1-[2-(2,2-difluoroethoxy)phenyl]propan-1-one] | < 50
CCOc1ccccc1C(=O)CCc1coc(-c2ccc(OC)c(OCC(F)(F)F)c2)n1 [Example 112, 1-(2-ethoxyphenyl)-3-{2-[4-methoxy-3-(2,2,2-trifluoroethoxy)phenyl]oxazol-4-yl}propan-1-one] | < 50
CCOc1cc(-c2nc(CCC(=O)c3ccccc3OCC)co2)ccc1OC(F)F [Example 334, 3-[2-(4-difluoromethoxy-3-ethoxyphenyl)oxazol-4-yl]-1-(2-ethoxyphenyl)propan-1-one] | < 50
CCCOc1cc(-c2nc(CCC(=O)c3ncccc3C)co2)ccc1OC [Example 143, 3-[2-(4-methoxy-3-propoxyphenyl)oxazol-4-yl]-1-(3-methylpyridin-2-yl)propan-1-one] | < 50
C=CCCOc1cc(-c2nc(CNC(=O)c3ccccc3OCC)co2)ccc1OC(F)F [Example 354, N-[2-(3-but-3-enyloxy-4-difluoromethoxyphenyl)oxazol-4-ylmethyl]-2-ethoxybenzamide] | < 50
COc1ccc(-c2nc(CCC(=O)c3ncccc3C)co2)cc1OCC1CCC1 [Example 141, 3-[2-(3-cyclobutylmethoxy-4-methoxyphenyl)oxazol-4-yl]-1-(3-methylpyridin-2-yl)propan-1-one] | < 50
C=CCOc1cc(-c2nc(CNC(=O)c3ccccc3OCC)co2)ccc1OC(F)F [Example 351, N-[2-(3-allyloxy-4-difluoromethoxyphenyl)oxazol-4-ylmethyl]-2-ethoxybenzamide] | < 50
COc1ccc(-c2nc(CCC(=O)c3ccccc3OCC(F)F)co2)cc1OCC1CC1 [Example 283, 3-[2-(3-cyclopropylmethoxy-4-methoxyphenyl)oxazol-4-yl]-1-[2-(2,2-difluoroethoxy)phenyl]propan-1-one] | < 50
CCOc1cc(-c2nc(CCC(=O)c3ccccc3OCC)co2)ccc1OC [Example 103, 3-[2-(3-ethoxy-4-methoxyphenyl)oxazol-4-yl]-1-(2-ethoxyphenyl)propan-1-one] | < 50
COc1ccc(-c2nc(CCC(=O)c3ncccc3C)co2)cc1OC1Cc2ccccc2C1 [Example 159, 3-{2-[3-(indan-2-yloxy)-4-methoxyphenyl]oxazol-4-yl}-1-(3-methylpyridin-2-yl)propan-1-one] | < 50
COc1ccc(-c2nc(CCC(=O)c3ncccc3C)co2)cc1OCC1CC1 [Example 137, 3-[2-(3-cyclopropylmethoxy-4-methoxyphenyl)oxazol-4-yl]-1-(3-methylpyridin-2-yl)propan-1-one] | < 50
CCOc1cc(-c2nc(CCC(=O)c3ccccc3OC(F)F)co2)ccc1OC [Example 274, 1-(2-difluoromethoxyphenyl)-3-[2-(3-ethoxy-4-methoxyphenyl)oxazol-4-yl]propan-1-one] | < 50
COc1ccc(-c2nc(CCC(=O)c3ccccc3OCC(F)F)co2)cc1OCC(C)C [Example 285, 1-[2-(2,2-difluoroethoxy)phenyl]-3-[2-(3-isobutoxy-4-methoxyphenyl)oxazol-4-yl]-propan-1-one] | < 50
COc1ccc(-c2nc(CNC(=O)c3ccccc3OC)co2)cc1OCC(C)C [Example 63, N-[2-(3-isobutoxy-4-methoxyphenyl)oxazol-4-ylmethyl]-2-methoxybenzamide] | < 50
